Tested on: human moDC
Assay: Staining moDC for activation marker expression
Assay type: cell-based
Description: Staining moDC for Activation Marker Expression. After treatment and supernatant collection, cells were resuspended in 200 μL/well PBS and transferred to 96-well V-bottom plates. To pellet cells and remove supernatant, plates were spun at 400×g for 4 min for this and subsequent steps. Cells were washed again with 200 μL/well PBS and pelleted. Live/dead Near-IR staining dye was diluted 1000-fold in PBS. […] Fc block was diluted 100-fold in FACS buffer, and 100 μL/well was added to cells. Cells were incubated with Fc block for 10 min at 4° C. During incubation primary CCR7 antibody (clone 2H4) was diluted 100-fold in FACS buffer. Cells were pelleted and primary CCR7 antibody was added at 100 μL/well. Cells were incubated at 37° C. for 30 min. Biotinylated rat anti-mouse IgM secondary was prepared by diluting 200-fold in FACS buffer. Cells were washed twice with FACS buffer before 100 μL/well secondary antibody was added. Cells were incubated at 4° C. for 20 min. Tertiary staining antibody cocktail was prepared in a mixture of FACS buffer and Brilliant Stain Buffer (1:1 volume ratio of each buffer). […], CD11c (PE-Cy7), CD209 (PE), CD40 (UV563), CD83 (UV737), CD86 (BV711), and HLA-DR (UV395) were all diluted 200-fold. HLA-ABC (BV605) was diluted 100-fold. […]
For flow cytometry analysis, fluorescence compensation was set up using compensation […]. […]

## CCCCCCCCCCCCCCCCCCCCCCOC[C@@H](O)COP(=O)(O)O [Compound 2, 1-docosyl-sn-glycerol-3-phosphate]
2.85 μM R848 and/or 82.5 μM DGP, overnight, FIG. 24A
  percentage of CD83+ cells: increased CD83 expression, but increase was not found to be statistically significant
FIG. 25B
  CD86 MFI: significant increases in CD86 expression as compared to unstimulated cells

From patent US20260097111A1, “ETHER LIPIDS FOR HYPERACTIVATION OF MAMMALIAN DENDRITIC CELLS” (priority 2022, published 2026)
